Tests used:
[1] = test system: histamine-induced nasal congestion; assay: Intranasal challenge method: whole body plethysmography, histamine-induced nasal congestion; format: in vivo, guinea pig; settings: 24 hours after dosing, compared to azelastine; intranasal 1 mg/ml (FIG. 3, Example 24D)
Description: FIG. 3: depicts the duration of 4-[(4-chlorophenyl)methyl]-2-({(2R)-1-[4-(4-{[3-(hexahydro-1H-azepin-1-yl)propyl]oxy}phenyl)butyl]-2-pyrrolidinyl}methyl)-1(2H)-phthalazinone, dihydrochloride salt (Example 24D) and azelastine in a conscious Guinea-Pig model of histamine-induced nasal congestion. Animals were exposed to histamine at the time indicated after an intranasal dose of 1 mg/ml of compound. Mean ±s.e. mean (n=6-10 per group).
Intranasal Challenge Method: Whole Body Plethysmography
Female Dunkin-Hartley guinea pigs 150-250 g are sensitised twice daily for 5 days (week 1) with ovalbumin (OVA) and aluminium hydroxide (AI(OH)3 or Alum) in physiological saline, 25 μl/nostril. Solution is made up at 20 μg/ml OVA, 180 mg/ml Alum. During weeks 2 and 3, animals receive 25 μl/nostril of OVA (5 mg/ml) once daily. […]
Pretreatment with test compound is performed at various times prior to histamine challenge. Efficacy dose-response curves are determined 1 h after dosing whereas duration of action is studied up to 7 days post dose. […]
After the stipulated pre-dose time has been reached, guinea pigs are re-anaesthetised with isoflurane and dosed with either 15 mM histamine or phosphate-buffered saline (PBS), (25 μl per nostril). […] Data are analysed using ANOVA with post-hoc Fishers LSD test (general linear models, Statistica®) and finally Hochberg adjustment. […]

[2] = target: T1, human H1 receptor (Homo sapiens, UniProt P35367); assay: Histamine H1 functional antagonist assay (FLIPR): determination of antagonist pA2; format: cell-based
T1 construct: expressed in transfected cells
T1 sequence (P35367 whole entry): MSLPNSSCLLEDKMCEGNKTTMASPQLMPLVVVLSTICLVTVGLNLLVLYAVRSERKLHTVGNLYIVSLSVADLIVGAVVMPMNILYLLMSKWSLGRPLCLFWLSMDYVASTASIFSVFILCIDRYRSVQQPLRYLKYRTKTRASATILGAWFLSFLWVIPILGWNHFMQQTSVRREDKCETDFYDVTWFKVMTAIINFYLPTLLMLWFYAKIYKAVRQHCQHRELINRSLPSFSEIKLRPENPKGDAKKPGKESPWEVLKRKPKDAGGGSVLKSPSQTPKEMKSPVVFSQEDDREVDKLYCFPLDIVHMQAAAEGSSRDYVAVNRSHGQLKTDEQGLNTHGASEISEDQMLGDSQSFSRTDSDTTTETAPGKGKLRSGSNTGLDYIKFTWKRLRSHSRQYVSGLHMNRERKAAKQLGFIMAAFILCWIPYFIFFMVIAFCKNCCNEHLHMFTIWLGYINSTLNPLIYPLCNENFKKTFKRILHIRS
Description: (§1) The human H1 receptor is cloned using known procedures described in the literature [Biochem. Biophys. Res. Commun., 201(2):894 (1994)]. Chinese hamster ovary (CHO) cells stably expressing the human H1 receptor are generated according to known procedures described in the literature [Br. J. Pharmacol., 117(6):1071 (1996)].
(§2) Histamine H1 functional antagonist assay: Determination of antagonist pA2 and duration
The histamine H1 receptor expressing CHO cells are seeded into non-coated black-walled clear bottom 96-well tissue culture plates as described above. Following overnight culture, growth medium is removed from each well, washed with 200 μl phosphate buffered saline (PBS) and is replaced with 50 μl loading dye (250 μM Brilliant Black, 1 μM Fluo-4 diluted in Tyrodes buffer+probenecid (145 mM NaCl, 2.5 mM KCl, 10 mM HEPES, 10 mM D-glucose, 1.2 mM MgCl2, 1.5 mM CaCl2, 2.5 mM probenecid, pH adjusted to 7.40 with NaOH 1.0 M)). Cells are incubated for 45 min at 37° C. The loading buffer is removed and the cells are washed as above, and 90 μl of Tyrodes buffer+probenecid is added to each well. 10 μl of test compound, diluted to the required concentration in Tyrodes buffer+probenecid (or 10 μl Tyrodes buffer+probenecid as a control) is added to each well and the plate is incubated for 30 min at 37° C., 5% CO2. The plates are then placed into a FLIPR™ (Molecular Devices, UK) to monitor cell fluorescence (λex=488 nm, λEM=540 nm) in the manner described in Sullivan et al., (In: Lambert DG (ed.), Calcium Signaling Protocols, New Jersey: Humana Press, 1999, 125-136) before and after the addition of 50 μl histamine over a concentration range of 1 mM-0.1 nM. The resultant concentration response curves are analysed by non-linear regression using a standard four parameter logistic equation to determine the histamine EC50, the concentration of histamine required to produce a response of 50% of the maximum response to histamine. The antagonist pA2 is calculated using the following standard equation: pA2=log(DR-1)- log[B] where DR=dose ratio, defined as EC50antagonist-treated/EC50control and [B]=concentration of antagonist.

[3] = target: T1, human H1 receptor; assay: Histamine H1 functional antagonist assay: antagonist duration after washout; format: cell-based; settings: at one or more time points
Description: as §1, §2
To determine the antagonist duration, cells are cultured overnight in non-coated black-walled clear bottom 96-well tissue culture plates, are washed with PBS and are incubated with a concentration of antagonist chosen to give an approximate DR in the range 30-300. Following the 30 min antagonist incubation period, the cells are washed two or three times with 200 μl of PBS and then 100 μl Tyrodes buffer is added to each well to initiate antagonist dissociation. Following incubation for predetermined times, typically 30-270 min at 37° C., the cells are then washed again with 200 μl PBS and are incubated with 100 μl Tyrodes buffer containing Brilliant Black, probenecid and Fluo-4 for 45 min at 37° C., as described above. After this period, the cells are challenged with histamine in the FLIPR™ as described above. The dose ratio at each time point is used to determine the fractional H1 receptor occupancy by the following equation: fractional receptor occupancy=(DR-1)/DR. The decrease in receptor occupancy over time approximates to a straight line and is analysed by linear regression. The slope of this straight line fit is used as an index of the dissociation rate of the antagonist. The dose ratios for antagonist treated cells and for antagonist treated and washed cells at each time point are used to calculate a relative dose ratio (rel DR) which is also used as an index of antagonist duration. Antagonists with long duration of action produce rel DR values close to 1, and antagonists with short duration of action produce rel DR values that approaches the dose ratio value obtained for antagonist treatment alone.

With `O=c1c2ccccc2c(Cc2ccc(Cl)cc2)nn1C[C@H]1CCCN1CCCCc1ccc(OCCCN2CCCCCC2)cc1` [Example 24, 4-[(4-Chlorophenyl)methyl]-2-({(2R)-1-[4-(4-{[3-(hexahydro-1H-azepin-1-yl)propyl]oxy}phenyl)butyl]-2-pyrrolidinyl}methyl)-1(2H)-phthalazinone free base] the “inhibition of nasal congestion in the Guinea Pig whole body plethysmography model” value [1] was “statistically significant inhibition of nasal congestion”, the Kb [2] was ~1.26 nM and the “duration of action compared with azelastine in the histamine H1 functional antagonist assay” value [3] was “significantly longer duration of action than azelastine”.

From US20080039444A1, “COMPOUNDS” (GLAXO GROUP LIMITED, priority 2006, published 2008)
